7 compounds from ChEMBL document CHEMBL5244281, “Tackling multidrug-resistant Staphylococcus aureus by natural products and their analogues acting as NorA efflux pump inhibitors” (Bioorg Med Chem, 2023) can be followed below.

Converted amounts (≈) assume the structure as drawn.

Test [1] deals with Staphylococcus aureus. The test can be described thus: Antibacterial activity against norfloxacin resistant Staphylococcus aureus 1199B harboring NorA efflux pump gene assessed as bacterial growth inhibition incubated for 24 hrs by resazurin based microdilution test. It is filed as functional. Background: Resazurin is reduced to fluorescent resorufin, in cell work by metabolically active cells.

For test [2], the system named is Staphylococcus aureus. The test can be described thus: Antibacterial activity against Staphylococcus aureus ATCC 25923 assessed as bacterial growth inhibition incubated for 24 hrs by resazurin based microdilution test. The format is functional.
Test [3] concerns Escherichia coli. Nature of the test: Antibacterial activity against Escherichia coli ATCC 25922 assessed as bacterial growth inhibition incubated for 24 hrs by resazurin based microdilution test. It is filed as functional.
For test [4], the system named is Staphylococcus aureus. The test can be described thus: Synergistic antibacterial activity against methicillin-susceptible Staphylococcus aureus 1199B overexpressing NorA efflux pump assessed as reduction in norfloxacin MIC at 64 ug/ml incubated for 18 to 24 hrs in presence of norfloxacin by MTT assay. The format is functional. The following applies: dose 64 µg/ml, time 18-24 hrs. (Tetrazolium assays rely on reduction of a dye to a coloured formazan, in cell work by metabolically active cells.)

Test [5] has as its system Staphylococcus aureus. The test can be described thus: Synergistic antibacterial activity against methicillin-susceptible Staphylococcus aureus 1199B overexpressing NorA efflux pump assessed as fractional inhibitory concentration index at 64 ug/ml incubated for 18 to 24 hrs in presence of norfloxacin by checkerboard microdilution assay. The format is functional. Particulars: dose 64 µg/ml; time 18-24 hrs.

Test [6] relates to Staphylococcus aureus. The test can be described thus: Antibacterial activity against norfloxacin resistant Staphylococcus aureus 1199B harboring NorA efflux pump assessed as bacterial growth inhibition incubated for 24 hrs by CLSI protocol based broth microdilution method. The format is functional.
Test [7] addresses T1, Quinolone resistance protein NorA (Staphylococcus aureus) (UniProt P0A0J7).
T1 sequence (whole entry): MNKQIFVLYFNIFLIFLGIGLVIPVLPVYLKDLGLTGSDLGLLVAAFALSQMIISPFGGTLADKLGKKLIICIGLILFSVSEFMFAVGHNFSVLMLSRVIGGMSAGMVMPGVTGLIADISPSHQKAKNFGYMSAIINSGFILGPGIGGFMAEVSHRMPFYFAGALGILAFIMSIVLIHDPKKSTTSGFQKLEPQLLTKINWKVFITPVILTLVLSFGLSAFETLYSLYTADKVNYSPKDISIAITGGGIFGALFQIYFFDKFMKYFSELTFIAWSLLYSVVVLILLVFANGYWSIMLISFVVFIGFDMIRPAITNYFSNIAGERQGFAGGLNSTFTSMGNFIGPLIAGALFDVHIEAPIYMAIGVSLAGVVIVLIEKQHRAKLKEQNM
Nature of the test: Modulation of norfloxacin-induced inhibition of NorA efflux pump in Staphylococcus aureus 1199B overexpressing NorA efflux pump assessed as reduction in norfloxacin MIC at 1/4 times of MIC by resazurin based assay.

Test [8] deals with Staphylococcus aureus. The test can be described thus: Antimicrobial activity against Staphylococcus aureus assessed as bacterial growth inhibition incubated for 18 to 24 hrs by broth microdilution method. It is filed as functional. Particulars: time 18-24 hrs.
A further test has as its system Bacillus subtilis. Nature of the test: Antimicrobial activity against Bacillus subtilis assessed as bacterial growth inhibition incubated for 18 to 24 hrs by broth microdilution method. It is filed as functional. Particulars: time 18-24 hrs. For orientation: Broth dilution looks for growth in wells or tubes with falling amounts of substance.
For another test, the system named is Enterococcus faecalis. Nature of the test: Antimicrobial activity against Enterococcus faecalis assessed as bacterial growth inhibition incubated for 18 to 24 hrs by broth microdilution method. The format is functional. The following applies: time 18-24 hrs.
The subject of test [9] is Escherichia coli. The test can be described thus: Antimicrobial activity against Escherichia coli assessed as bacterial growth inhibition incubated for 18 to 24 hrs by broth microdilution method. The format is functional. Particulars: time 18-24 hrs.
In a further test the test system is Vibrio cholerae. Nature of the test: Antimicrobial activity against Vibrio cholerae assessed as bacterial growth inhibition incubated for 18 to 24 hrs by broth microdilution method. The format is functional. Particulars: time 18-24 hrs.
The next test has as its system Klebsiella pneumoniae. The test can be described thus: Antimicrobial activity against Klebsiella pneumoniae assessed as bacterial growth inhibition incubated for 18 to 24 hrs by broth microdilution method. Particulars: time 18-24 hrs. It is filed as functional.
A further test concerns Proteus vulgaris. Nature of the test: Antimicrobial activity against Proteus vulgaris assessed as bacterial growth inhibition incubated for 18 to 24 hrs by broth microdilution method. The format is functional. Particulars: time 18-24 hrs.
The next test concerns Proteus mirabilis. Nature of the test: Antimicrobial activity against Proteus mirabilis assessed as bacterial growth inhibition incubated for 18 to 24 hrs by broth microdilution method. Particulars: time 18-24 hrs. It is filed as functional.
The next test has as its system Shigella dysenteriae. Nature of the test: Antimicrobial activity against Shigella dysenteriae assessed as bacterial growth inhibition incubated for 18 to 24 hrs by broth microdilution method. The format is functional. The following applies: time 18-24 hrs.
For the next test, the system named is Pseudomonas aeruginosa. Nature of the test: Antimicrobial activity against Pseudomonas aeruginosa assessed as bacterial growth inhibition incubated for 18 to 24 hrs by broth microdilution method. The format is functional. Particulars: time 18-24 hrs.
For test [10], the system named is Staphylococcus aureus. Nature of the test: Antibacterial activity against Staphylococcus aureus IS-58 overexpressing TetK pump assessed as bacterial growth inhibition incubated for 24 hrs by resazurin based broth dilution method. The format is functional.
Test [11] concerns Staphylococcus aureus. The test can be described thus: Antibacterial activity against methicillin-resistant Staphylococcus aureus RN4220/pUL5054 overexpressing MsrA efflux pump assessed as bacterial growth inhibition incubated for 24 hrs by resazurin based broth dilution method. It is filed as functional.
Test [12] concerns Staphylococcus aureus. Nature of the test: Antibacterial activity against methicillin-resistant Staphylococcus aureus 1199B overexpressing NorA efflux pump assessed as bacterial growth inhibition incubated for 24 hrs by resazurin based broth dilution method. It is filed as functional.
Test [13] concerns Staphylococcus aureus. Nature of the test: Antibacterial activity against methicillin-resistant Staphylococcus aureus 1199 assessed as bacterial growth inhibition incubated for 24 hrs by resazurin based broth dilution method. The format is functional.
Test [14] deals with Staphylococcus aureus. The test can be described thus: Potentiation of erythromycin-induced inhibition of MsrA pump in Staphylococcus aureus RN4220/pUL5054 assessed as reduction in erythromycin MIC incubated for 24 hrs by Resazurin based assay (RVB= 645.08 ug/ml).
In test [15] the test system is Staphylococcus aureus. The following applies: IS-58, time 24.0 hrs.
Test [16] has as its target T1, Quinolone resistance protein NorA (Staphylococcus aureus). The following applies: 1199B, time 24.0 hrs.
Test [17] concerns Staphylococcus aureus. Particulars: IS-58, time 24.0 hrs. The source holds these as a separate data set.
Test [18] has as its target T1, Quinolone resistance protein NorA (Staphylococcus aureus). Particulars: 1199B, time 24.0 hrs. The source holds these as a separate data set.
Test [19] deals with Staphylococcus aureus. The test can be described thus: Synergistic antibacterial activity against Staphylococcus aureus 1199B overexpressing NorA efflux pump assessed as fractional inhibitory concentration index in presence of norfloxacin by chequer board assay. The format is functional.
The test system of test [20] is Staphylococcus aureus. The test can be described thus: Antibacterial activity against wild type Staphylococcus aureus 1199 assessed as bacterial growth inhibition incubated for 24 hrs by microdilution method. It is filed as functional.
Test [21] deals with Staphylococcus aureus. The test can be described thus: Antibacterial activity against Staphylococcus aureus 1199B overexpressing NorA efflux protein assessed as bacterial growth inhibition incubated for 24 hrs by microdilution method. The format is functional.

`Oc1ccc2c(c1)O[C@H](c1ccc(O)c(O)c1)[C@@H](O)C2` [FISETINIDOL]: the MIC with Staphylococcus aureus [1], in the test on Staphylococcus aureus [2] and with Escherichia coli [3] was not below 1020 µg/mL in each case.
Take `COc1cc2c(cc1O)CC[n+]1cc3c(OC)c(OC)ccc3cc1-2` [JATRORRHIZINE]: the MIC in the test with Staphylococcus aureus [4] was 16 µg/mL. For the same compound, the “fractional inhibitory concentration index (FICI)” value in the test on Staphylococcus aureus [5] was determined as 0.375.
For `O=c1c(O)c(-c2cc(O)c(O)c(O)c2)oc2cc(O)cc(O)c12` [MYRICETIN], the MIC came out at 256 µg/mL (≈ 804 µM) in the test on Staphylococcus aureus [6] and 256 µg/mL in test [7].
For `COc1cc(O)c2c(c1)O[C@H](c1ccccc1)CC2=O` [PINOSTROBIN], the MIC in the test on Staphylococcus aureus [8] was 64 µg/mL (≈ 237 µM); in the test with Bacillus subtilis, 12 µg/mL (≈ 44.4 µM); in the test on Enterococcus faecalis, 12 µg/mL (≈ 44.4 µM); with Escherichia coli [9], 12 µg/mL (≈ 44.4 µM); with Vibrio cholerae, 24 µg/mL (≈ 88.8 µM); in the test with Klebsiella pneumoniae it was 18 µg/mL (≈ 66.6 µM). The MIC in the test on Proteus vulgaris worked out at 18 µg/mL (≈ 66.6 µM); with Proteus mirabilis, 32 µg/mL (≈ 118 µM); with Shigella dysenteriae it was 12 µg/mL (≈ 44.4 µM); in the test on Pseudomonas aeruginosa, 32 µg/mL (≈ 118 µM).
For `O=c1c(O)c(-c2ccc(O)c(O)c2)oc2cc(O)cc(O)c12` [QUERCETIN], the MIC with Staphylococcus aureus [10] is 512 µg/mL (≈ 1690 µM); with Staphylococcus aureus [11] it was not below 1020 µg/mL; in the test on Staphylococcus aureus [12], not below 1020 µg/mL; with Staphylococcus aureus [13], not below 1020 µg/mL; in the test on Staphylococcus aureus [14], 512 µg/mL; against Staphylococcus aureus [15] it was 128 µg/mL (≈ 424 µM). The results for the MIC (in test [16]; against Staphylococcus aureus [17]; in test [18]) were 128 µg/mL (≈ 424 µM), 12.7 µg/mL (≈ 42 µM) and 12.7 µg/mL (≈ 42 µM), respectively.
Consider `C=C(C)[C@H](CC=C(C)C)Cc1c(O)cc(O)c2c1O[C@H](c1ccc(O)cc1O)CC2=O` [SOPHORAFLAVANONE G], for which the “fractional inhibitory concentration index (FICI)” value in the test with Staphylococcus aureus [19] worked out at 0.188.
Consider `O=C(OC[C@H]1O[C@@H](OC(=O)c2cc(O)c(O)c(OC(=O)c3cc(O)c(O)c(O)c3)c2)[C@H](OC(=O)c2cc(O)c(O)c(OC(=O)c3cc(O)c(O)c(O)c3)c2)[C@@H](OC(=O)c2cc(O)c(O)c(OC(=O)c3cc(O)c(O)c(O)c3)c2)[C@@H]1OC(=O)c1cc(O)c(O)c(OC(=O)c2cc(O)c(O)c(O)c2)c1)c1cc(O)c(O)c(OC(=O)c2cc(O)c(O)c(O)c2)c1` [TANNIC ACID], for which the MIC with Staphylococcus aureus [20] and with Staphylococcus aureus [21] was not below 1020 µg/mL throughout.
